Measurements from US9458337B2, “Curable resin composition, water-soluble ink composition, ink set, and image-forming method” (FUJIFILM CORPORATION, priority 2012, dated 2016).

Assay: Degree of solubility of polymerization initiators (3 mass % aqueous solution)
Type: physicochemical
Design: key: A: The polymerization initiator was fully dissolved at room temperature.; B: The polymerization initiator was slightly precipitated at room temperature, and was fully dissolved when being heated at 60° C.; The polymerization initiator was not fully dissolved even when being heated at 60° C
Settings: 3 mass % aqueous solution of the polymerization initiator; room temperature / heated at 60° C.
Experimental: 3 mass % aqueous solutions were respectively prepared using Polymerization Initiators I-1 to I-5, I-8, and R-1 to R-4, and the degrees of solubility of the polymerization initiators were evaluated according to the following evaluation standards.
A: The polymerization initiator was fully dissolved at room temperature.
B: The polymerization initiator was slightly precipitated at room temperature, and was fully dissolved when being heated at 60° C.
C: The polymerization initiator was not fully dissolved even when being heated at 60° C.

SMILES | Degree of solubility
C[N+](C)(CCCS(=O)(=O)[O-])CCOc1ccc2c(=O)c3ccccc3sc2c1 [Compound I-1] | A
CC(C)(O)C(=O)c1ccc(OCCO)cc1 [Compound R-1] | C
Cc1c(OCC(O)C[N+](C)(C)C)cc2c(=O)c3ccccc3sc2c1C (centres unmarked) [Compound R-2] | A
COC(OC)(C(=O)c1ccc(OCC(=O)[O-])cc1)c1ccc(OCC(=O)[O-])cc1.[Na+].[Na+] [Compound R-3] | C
CCC(Cc1ccc(S(=O)(=O)O)cc1)(C(=O)c1ccc(N2CCOCC2)cc1)N(C)C (centres unmarked) [Compound R-4] | A
